{
  "source": "paper PMC11313788",
  "about": "“A Series of Novel 1-H-isoindole-1,3(2H)-dione Derivatives as Acetylcholinesterase and Butyrylcholinesterase Inhibitors: In Silico, Synthesis and In Vitro Studies” (Molecules, 2024)",
  "key": {"[1]": {"molecular_target": "T1, acetylcholinesterase (AChE) from electrophorus electricus (Electrophorus electricus, UniProt O42275)", "T1 construct": "purchased Sigma-Aldrich", "T1 sequence (O42275 24-633)": "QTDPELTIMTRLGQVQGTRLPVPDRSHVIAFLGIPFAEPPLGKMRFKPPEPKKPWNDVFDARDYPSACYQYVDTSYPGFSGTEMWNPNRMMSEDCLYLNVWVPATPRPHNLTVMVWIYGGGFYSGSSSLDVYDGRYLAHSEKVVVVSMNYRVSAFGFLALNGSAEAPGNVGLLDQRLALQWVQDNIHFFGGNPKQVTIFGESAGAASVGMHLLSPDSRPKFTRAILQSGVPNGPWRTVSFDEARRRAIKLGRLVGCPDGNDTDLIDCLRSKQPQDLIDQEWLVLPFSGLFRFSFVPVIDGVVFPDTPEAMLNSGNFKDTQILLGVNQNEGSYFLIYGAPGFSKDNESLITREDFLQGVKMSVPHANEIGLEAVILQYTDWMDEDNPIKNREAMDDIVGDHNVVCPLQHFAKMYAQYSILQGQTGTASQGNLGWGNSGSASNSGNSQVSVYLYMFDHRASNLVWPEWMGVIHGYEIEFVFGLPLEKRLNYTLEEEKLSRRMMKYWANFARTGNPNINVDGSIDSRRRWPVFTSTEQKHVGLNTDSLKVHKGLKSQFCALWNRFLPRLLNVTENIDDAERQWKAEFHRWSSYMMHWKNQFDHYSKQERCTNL", "assay": "biochemical", "assay_type": "biochemical", "conditions": "for IC50: Ellman's method, 96-well plate, enzyme with compound incubated 20 min at 37 °C, phosphate buffer pH 8.0, three measurements; for Selectivity AChE: ratio of the IC50 values (BuChE/AChE), definition not given", "experimental": "(§1) To determine the inhibitory properties of the tested compounds against acetylcholinesterase and butyrylcholinesterase, Ellman’s method was used. […] For each system, measurements were carried out three times. Dose–response curve functions were fitted to the obtained results.\n(§2) The following reagents were used to evaluate the inhibiting activity: acetylcholinesterase (AChE) from electrophorus electricus (Sigma-Aldrich, Saint Louis, MO, USA), butyrylcholinesterase (BuChE) from horse serum, acetylthiocholine iodide (Sigma-Aldrich, Saint Louis, MO, USA), butyrylthiocholine iodide (Sigma-Aldrich, Saint Louis, MO, USA), 5,5′-Dithiobis-(2-nitrobenzoic acid) (DTNB, Sigma-Aldrich, Saint Louis, MO, USA). The enzymes were prepared by dissolving in phosphate buffer, pH = 8.0) with the final concentration 2 U/mL for AChE and 4 U/mL for BuChE. The stock solutions of acetylthiocholine iodide (10^−3 mol/dm^3), butyrylthiocholine iodide (10^−3 mol/dm^3) and DTNB (10^−3 mol/dm^3) were prepared in phosphate buffer. The inhibitory activity of derivatives was evaluated by Ellman’s colorimetric method in a 96-well plate. First, the enzyme solution with the tested compound was incubated for 20 min at 37 °C. Next, acetylthiocholine iodide or butyrylthiocholine iodide and DTNB were added."}, "[2]": {"molecular_target": "T2, butyrylcholinesterase (BuChE) from horse serum (Equus caballus, UniProt P81908)", "T2 construct": "butyrylcholinesterase (BuChE) from horse serum; from tissue; host or cells: horse serum", "T2 sequence (P81908 whole entry)": "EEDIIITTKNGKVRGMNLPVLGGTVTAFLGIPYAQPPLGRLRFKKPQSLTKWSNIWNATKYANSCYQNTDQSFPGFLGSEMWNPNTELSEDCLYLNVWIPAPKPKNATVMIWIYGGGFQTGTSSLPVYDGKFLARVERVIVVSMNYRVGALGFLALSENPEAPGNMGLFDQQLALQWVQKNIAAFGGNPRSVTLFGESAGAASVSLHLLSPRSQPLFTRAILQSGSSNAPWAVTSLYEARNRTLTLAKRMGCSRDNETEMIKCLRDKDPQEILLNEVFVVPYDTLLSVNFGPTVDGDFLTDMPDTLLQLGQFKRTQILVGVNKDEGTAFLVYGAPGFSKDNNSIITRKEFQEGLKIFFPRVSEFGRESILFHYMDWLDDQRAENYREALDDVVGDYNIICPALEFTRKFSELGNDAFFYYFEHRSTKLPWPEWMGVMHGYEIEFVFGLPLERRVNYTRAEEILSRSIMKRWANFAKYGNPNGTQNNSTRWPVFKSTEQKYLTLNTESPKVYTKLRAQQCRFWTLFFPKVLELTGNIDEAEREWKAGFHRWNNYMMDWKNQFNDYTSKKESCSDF", "assay": "biochemical", "conditions": "for IC50: Ellman's method, 96-well plate, enzyme with compound incubated 20 min at 37 °C, phosphate buffer pH 8.0, three measurements; for Selectivity BuChE: ratio of the IC50 values (AChE/BuChE), definition not given", "experimental": "as §1, §2"}},
  "data": [
    {"smiles": "O=C1c2ccccc2C(=O)N1CCN1CCN(c2ccccc2)CC1", "note": "[Compound I, N-[2-(4-phenyl-1-piperazinyl)ethyl]-1H-isoindole-1,3(2H)-dione]", "values": [
      {"measurement": "IC50", "setting": "[1]", "value": "1.12 ± 0.3", "unit": "µM"},
      {"measurement": "Selectivity AChE", "setting": "[1]", "value": 22.02},
      {"measurement": "IC50", "setting": "[2]", "value": "24.7 ± 1.74", "unit": "µM"},
      {"measurement": "Selectivity BuChE", "setting": "[2]", "value": 0.05}
    ]},
    {"smiles": "O=C1c2ccccc2C(=O)N1CCN1CCN(c2ncccn2)CC1", "note": "[IV]", "values": [
      {"measurement": "IC50", "setting": "[1]", "value": "3.9 ± 0.43", "unit": "µM"},
      {"measurement": "AChE inhibitory activity compared to derivative I", "setting": "[1]; compared to the derivative with a benzene ring (I)", "value": "about four-times less activity"},
      {"measurement": "Selectivity AChE", "setting": "[1]", "value": 17.66},
      {"measurement": "IC50", "setting": "[2]", "value": "68.9 ± 7.82", "unit": "µM"},
      {"measurement": "Selectivity BuChE", "setting": "[2]", "value": 0.06}
    ]},
    {"smiles": "O=C1c2ccccc2C(=O)N1CCN1CCc2ccccc2C1", "note": "[Compound VI]", "values": [
      {"measurement": "IC50", "setting": "[1]", "value": "1.14 ± 0.17", "unit": "µM"},
      {"measurement": "Selectivity AChE", "setting": "[1]", "value": 45.71},
      {"measurement": "IC50", "setting": "[2]", "value": "52.1 ± 9.73", "unit": "µM"},
      {"measurement": "Selectivity BuChE", "setting": "[2]", "value": 0.02}
    ]},
    {"smiles": "O=C1c2ccccc2C(=O)N1CCN1CCN(c2ccc(C(F)(F)F)cc2)CC1", "note": "[II, N-{2-[4-(4-trifluoromethylphenyl)-1-piperazinyl]ethyl}-1H-isoindole-1,3(2H)-dione]", "values": [
      {"measurement": "IC50", "setting": "[1]", "value": "2.31 ± 0.36", "unit": "µM"},
      {"measurement": "Selectivity AChE", "setting": "[1]", "value": 10.70},
      {"measurement": "IC50", "setting": "[2]", "value": "24.7 ± 3.78", "unit": "µM"},
      {"measurement": "Selectivity BuChE", "setting": "[2]", "value": 0.09}
    ]},
    {"smiles": "O=C1c2ccccc2C(=O)N1CCN1CCOCC1", "note": "[Compound V, N-(2-morpholine)ethyl-1H-isoindole-1,3(2H)-dione]", "values": [
      {"measurement": "IC50", "setting": "[1]", "value": "16.2 ± 2.37", "unit": "µM"},
      {"measurement": "IC50", "setting": "[2]", "value": "> 1000", "unit": "µM"}
    ]},
    {"smiles": "O=C1c2ccccc2C(=O)N1CCN1CCN(C(c2ccccc2)c2ccccc2)CC1", "note": "[III, N-{2-[4-(4-diphenylomethylo)-1-piperazinyl]ethyl}-1H-isoindole-1,3(2H)-dione]", "values": [
      {"measurement": "IC50", "setting": "[1]", "value": "1.94 ± 0.43", "unit": "µM"},
      {"measurement": "Selectivity AChE", "setting": "[1]", "value": 10.95},
      {"measurement": "IC50", "setting": "[2]", "value": "21.2 ± 4.84", "unit": "µM"},
      {"measurement": "Selectivity BuChE", "setting": "[2]", "value": 0.09}
    ]}
  ]
}
